Laboratory results taken from PMC9180926, “Discovery of Novel 3-Hydroxyquinazoline-2,4(1H,3H)-Dione Derivatives: A Series of Metal Ion Chelators with Potent Anti-HCV Activities” (International Journal of Molecular Sciences, 2022).
Entries after “also recorded” stand apart in the source; their conditions may differ. Like-named read-outs stand apart in the source and are kept apart here.

Key:
[1] = Cytotoxicity assay (CCK-8) on replicon cells; assay type: cell-based; settings: human, HCV 1b replicon cells (Huh-7.5.1); 50% cytotoxic concentration; CCK-8, HCV 1b replicon cells, 72 h
Method: (§1) The HCV replicons were validated as convenient and effective models for testing the anti-HCV activity. Since HCV subtype 1b is one of the major subtypes worldwide, especially in China, the replicon model from the Huh-7.5.1 cell line integrating HCV 1b genome encoding the nonstructural proteins was chosen to evaluate the anti-HCV activities of 3-hydroxyquinazoline-2,4(1H,3H)-diones. The inhibitory rates of the compounds on HCV replicon cells were determined at concentrations of 25 μM and 10 μM, respectively. The broad-spectrum antiviral drug ribavirin (RBV) and the NS5B nucleoside inhibitor 2′-C-methyladenosine (2CMA) were selected as positive controls. The cytotoxicity of these compounds on replicon cells was determined using the cell counting kit-8 (CCK-8) assay.
(§2) The HCV 1b replicon cells were incubated and treated with test compounds or blank DMSO in a 48-well plate using the same materials and methods as described in the experimental procedure of anti-HCV assay. The final concentration of DMSO in each well was 0.1%. After 72 h of drug treatment, the culture medium in the well plate was removed, and cells in each well were washed with 300 μL of PBS. A total of 300 μL of pre-prepared fresh culture medium containing 30 μL CCK-8 reagent (Donjindo, Kumamoto, Japan) was added to each well, and the plate was incubated at 5% CO2/37 °C for 2 h. The OD (optical density) value of each well at 450 nm was measured using a multi-function microplate reader (SpectraMax M5, Molecular Devices, San Jose, CA, USA). The death ratio of each well was calculated using the following equation, in which ODcompound or ODblank represents the measured OD value of the compound group or the blank control (DMSO), respectively:death ratio = (1−ODcompound/ODblank) × 100%(2)
(§3) The cell death data under at least six different concentration gradients were imported into GraphPad Prism 7.0.0 software (GraphPad Software Inc., San Diego, CA, USA), and the CC50 (50% cytotoxic concentration) values were calculated using the nonlinear fitting method.

[2] = test system: HCV 1b replicon cells (Huh-7.5.1); assay: Cytotoxicity assay (CCK-8) on replicon cells; assay type: cell-based; settings: replicon cells, tested concentrations
Method: as §1, §2, §3

[3] = test system: HCV 1b replicon cells (Huh-7.5.1); assay: Anti-HCV assay, HCV 1b replicon cells with luciferase reporter; assay type: cell-based, hepatitis C virus (HCV) subtype 1b; settings: HCV 1b replicon cells; for EC50: mean ± SD; for inhibition at 10 µM / inhibition at 25 µM: Huh-7.5.1, 72 h, 72 h; for inhibition at 10 µM: inhibitory rate at 10 μM, read-out: HCV Inhibition 10 μM; for inhibition at 25 µM: inhibitory rate at 25 μM, read-out: HCV Inhibition 25 μM
Method: as §1
HCV 1b replicon cells (Huh-7.5.1) containing luciferase reporter gene were kindly provided by Prof. Zhenghong Yuan (Key Laboratory of Medical Molecular Virology, Fudan University, Shanghai, China). The replicon cells were plated at 1.5 × 10^4 cells per well in a 48-well plate (Corning Inc., New York, NY, USA) at 5% CO2/37 °C. The culture medium was Dulbecco’s Modified Eagle Medium (DMEM, pH 7.3, Shanghai XP Biomed Ltd., Shanghai, China) containing 10% fetal bovine serum (Shanghai XP Biomed Ltd., Shanghai, China), 10^5 U/L penicillin, 0.1 g/L streptomycin, and 0.5 μg/mL blasticidin. After 12 h, the culture medium in each well was replaced with 300 μL of pre-prepared fresh culture medium containing test compound (dissolved in DMSO with specific concentration) or blank DMSO. The final concentration of DMSO in the culture medium in the plate was 0.1%. Each group was tested at least twice in parallel. Ribavirin and 2CMA were used as the positive controls. After incubating the drug-added plate at 5% CO2/37 °C for 72 h, the medium was removed, and each well was washed with 300 μL of phosphate buffer solution (PBS, Shanghai XP Biomed Ltd., Shanghai, China). The cells in each well were then lysed with 50 μL of 1× lysis buffer (E2820, Promega, Madison, WI, USA). Subsequently, 50 μL of 1× luciferase assay substrate (E2820, Promega, Madison, WI, USA) was mixed with 20 μL of the harvested cell lysates.
The inhibitory rates under at least six different concentration gradients were imported into GraphPad Prism 7.0 software to calculate the anti-HCV EC50 values of the compounds using the nonlinear fitting method.

HCV = settings: cited from earlier work
NS5B = settings: cited from earlier work
[4] = test system: HCV 1b replicon cells (Huh-7.5.1); assay: Anti-HCV assay, HCV 1b replicon cells with luciferase reporter; assay type: cell-based, hepatitis C virus (HCV) subtype 1b; settings: Hepatitis C virus, Huh-7.5.1, 72 h, inhibitory rate at 5 μM
[5] = molecular target: T1, C-terminal His-tagged NS5BΔ21 from HCV 1b subtype (Hepatitis C virus genotype 1b, UniProt Q913V3); assay: Thermal shift assay with NS5B protein; assay type: binding
T1 construct: C-terminal His-tagged NS5BΔ21 from HCV 1b subtype; His tag (C); made in house
T1 sequence (Q913V3 2420-2989, stated change not applied): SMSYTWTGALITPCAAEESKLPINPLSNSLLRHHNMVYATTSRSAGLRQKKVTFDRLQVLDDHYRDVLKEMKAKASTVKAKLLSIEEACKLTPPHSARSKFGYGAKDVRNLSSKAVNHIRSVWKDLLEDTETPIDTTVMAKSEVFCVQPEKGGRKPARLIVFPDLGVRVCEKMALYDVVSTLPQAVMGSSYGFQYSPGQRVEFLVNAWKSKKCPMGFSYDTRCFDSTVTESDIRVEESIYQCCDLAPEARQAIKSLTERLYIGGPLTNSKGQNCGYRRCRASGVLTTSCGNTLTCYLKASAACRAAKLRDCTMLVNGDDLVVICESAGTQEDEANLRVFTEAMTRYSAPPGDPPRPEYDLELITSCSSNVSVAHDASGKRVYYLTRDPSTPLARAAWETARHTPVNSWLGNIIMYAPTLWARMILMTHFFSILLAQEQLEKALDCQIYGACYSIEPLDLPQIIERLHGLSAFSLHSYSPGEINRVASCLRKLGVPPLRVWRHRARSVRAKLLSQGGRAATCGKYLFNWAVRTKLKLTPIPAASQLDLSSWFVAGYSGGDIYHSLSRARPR
Description: The stability of a protein system is enhanced after binding to its specific ligand, leading to an increase in the melting temperature (Tm). Taking advantage of this feature, the thermal shift assay was extensively used to assess the binding of small molecules to the protein targets. The metal ion chelators were thought to exert an anti-HCV effect by chelating with Mg^2+ in the catalytic center of NS5B [34, 36, 38]. […] C-terminal His-tagged NS5BΔ21 from HCV 1b subtype was used as the protein in the experiment. Compared with the blank control (DMSO), the fluorescence–temperature curves of the NS5B system in the presence of 21e (Figure 3A) and 21k (Figure 3B) at 50 μM, 100 μM, and 200 μM all shifted to the right of the axis. The Tm values of 21e and 21k increased in a concentration-dependent manner, presenting higher values than that of the blank control (Tm = 63.5 °C) at all tested concentrations.
C-terminal His-tagged NS5BΔ21 from HCV 1b subtype was expressed from pET28a HCR6 plasmid in our lab and dissolved in a Tris-HCl buffer (20 mm, pH 7.2) containing 150 mm NaCl. Then, 1 μL of corresponding concentration (1 mm, 2 mm, or 4 mm) of the test compound in DMSO or 1 μL DMSO alone was added to each well of a 96-well PCR plate (Shanghai Sangon Biotech Co., Ltd., Shanghai, China). Subsequently, 19 μL of pre-prepared PBS solution containing 10 mm MgCl2, 10× SYPRO® orange protein gel stain (Sigma-Aldrich, St. Louis, MO, USA), and 5 μM NS5B protein was added to each well and mixed. The final concentration of DMSO in each well was 5%. The PCR plate was covered with a high-permeable film, incubated at room temperature for 10 min, and then placed on the Applied Biosystems^TM 7500 Real-Time PCR System (Thermo Fisher Scientific, Waltham, MA, USA). The temperature was increased to 90 °C gradually, and the change curve of fluorescence intensity versus system temperature was recorded.

[6] = set-up: method as in PMID 22100256; settings: Figure 1; read-out: NS5B CC50; cited from earlier work
[7] = Hepatitis C virus, Huh-7.5.1, 50% effective concentration
[8] = 5,6-dihydroxypyrimidine-4-carboxylic acids

SMILES | CC50 at 72 h [1] [µM] | cytotoxicity (in words) [2] | EC50 [3, 7] [µM] | inhibition at 10 µM ([3]; Hepatitis C virus) [%] | inhibition at 25 µM ([3]; Hepatitis C virus) [%] | further results
O=c1c2ccccc2n(CCc2ccc(F)cc2)c(=O)n1O [10d, 1-(4-Fluorophenethyl)-3-hydroxyquinazoline-2,4(1H,3H)-dione] | 22.2 ± 4.6 | some cytotoxicity | 13.3 ± 0.9 | 36.4 | 75.7 | 
NC(=O)c1ncn([C@@H]2O[C@H](CO)[C@@H](O)[C@H]2O)n1 [RBV, ribavirin, reference compound] | 45.5 ± 2.6 |  | 20 ± 4.1 |  | 53.2 | EC50 (HCV; cellular level, reported): 14 µM
O=C(O)C(=O)CC(=O)c1ccccc1 [compound 1] |  |  |  |  |  | IC50 (NS5B; α,γ-diketo acids): 5.7 µM
O=C(NCc1ccccc1Cl)Nc1cscc1-c1nc(O)c(O)c(C(=O)O)n1 [compound 5] |  |  |  |  |  | EC50 (HCV; cellular level): 9.3 µM; IC50 (NS5B; [8]): 0.15 µM
O=c1c2ccccc2n(CCc2ccccc2Cl)c(=O)n1O [10c, 1-(2-Chlorophenethyl)-3-hydroxyquinazoline-2,4(1H,3H)-dione] | 12.2 | some cytotoxicity | > 12.2 | 33.4 | 67.8 | 
O=c1[nH]c2cc(-c3cccc([N+](=O)[O-])c3)ccc2c(=O)n1O [21k, 3-Hydroxy-7-(3-nitrophenyl)quinazoline-2,4(1H,3H)-dione] | 40.9 ± 3.5 |  |  | 70.6 |  | inhibition at 5 µM [4]: 55%; ΔTm at 50 µM ([5]; compound 50 μM, Tm of compound group minus Tm of blank control, mean ± SD, three experiments): 0.87 ± 0.12 °C; ΔTm at 100 µM ([5]; compound 100 μM, Tm of compound group minus Tm of blank control, mean ± SD, three experiments): 1.6 ± 0.08 °C; ΔTm at 200 µM ([5]; compound 200 μM, Tm of compound group minus Tm of blank control, mean ± SD, three experiments, read-out: ΔTm 200 μM): 2.1 ± 0.44 °C; Tm of NS5B complexed with compound ([5]; in Figure 3, blank control Tm = 63.5 °C): 65.6 °C
O=C1Cc2cc(-c3ccco3)ccc2C(=O)N1O [compound 6] |  |  |  |  |  | EC50 (HCV; cellular level, reported): 1.9 µM; CC50 [6]: 13 µM; IC50 (NS5B; 2-hydroxyisoquinoline-1,3-diones): 1.3 µM
C[C@@]1(O)[C@H](O)[C@@H](CO)O[C@H]1n1cnc2c(N)ncnc21 [2CMA, 2′-C-methyladenosine, reference compound] | > 10 |  | 0.36 ± 0.03 |  |  | EC50 (HCV; reported): 0.3 µM
O=c1[nH]c2cc(-c3cc4ccccc4o3)ccc2c(=O)n1O [21t, 7-(Benzofuran-2-yl)-3-hydroxyquinazoline-2,4(1H,3H)-dione] | > 50 | no obvious cytotoxic effect; also recorded: No cytotoxic effect was observed |  | 68.3 | 78.5 | 
O=c1[nH]c2cc(-c3ccc(C(F)(F)F)cc3)ccc2c(=O)n1O [21h, 3-Hydroxy-7-(4-(trifluoromethyl)phenyl)quinazoline-2,4(1H,3H)-dione] | > 50 | no cytotoxicity was observed | < 10 | 53.8 |  | inhibition at 5 µM [4]: 5%; EC50 ([3]; 50% effective concentration): 9.6 ± 2.7 µM
O=C(O)c1nc(-c2cccs2)nc(O)c1O [compound 4] |  |  |  |  |  | EC50 (HCV; cellular level): > 100 µM; IC50 (NS5B; [8]): 2.6 µM
N#Cc1c(Cl)cc(Cl)cc1COc1cccc(C(=O)CC(=O)C(=O)O)c1 [compound 2] |  |  |  |  |  | IC50 (NS5B; α,γ-diketo acids): 0.045 µM
O=C(O)c1occc(=O)c1O [compound 3] |  |  |  |  |  | EC50 (HCV; cellular level): > 50 µM; IC50 (NS5B; meconic acids): 2.25 µM
